Measured values published in patent US20100047227A1, “NOVEL ANTICANCER CATHEPSIN FORMULATIONS AND ANTICANCER AGENT FOR USE IN COMBINED ANTICANCER THERAPY” (priority 2006, published 2010).

Tested on: soluble TRAIL trimers
Assay: immunoblot densitometry of soluble TRAIL trimer in culture supernatant
Format: cell-based, human
Settings: PrE and prostate cancer cell lines treated with cathepsin E
Protocol: The SDS-PAGE and immunoblot analyses were carried out according to prior art literature (Reference #63). The protein fractioned by SDS-PAGE was migrated on nitrocellulose membrane and was blocked with 5% non-fat dried milk. Then, the nitrocellulose membrane was incubated overnight at 4° C. with a primary antibody, i.e., anti-TRAIL antibody (1/300-fold dilution), anti-TNF-α antibody (1/200-fold dilution), anti-FasL antibody (1/500-fold dilution), anti-DR4 antibody (1/500-fold dilution), anti-DR5 antibody (1/100-fold dilution), anti-DcR1 antibody (1/500-fold dilution), anti-DcR2 antibody (1/500-fold dilution), anti-osteoprotegrin (1/150-fold dilution) or anti-β-actin antibody (1/500-fold dilution). […] The resulting membrane was then washed several times and an immunocomplex was detected with a chemiluminescent reagent. The measurement for density was measured with LAS 1000 analyzer.
In this assay, the cells to be tested were incubated to a ˜80% confluent state and then together with cathepsin E (100 μg/ml) or physiological saline at 37° C. and pH 7.4 for 20 hours, followed by measurements for the cell survival rate by a colorimetric assay. […] As an alternative method, a culture medium of each cell line was immunoblot-analyzed using an anti-OPG antibody. […] Thereafter, the immunoblot was analyzed for its concentration in order to determine a quantity of a soluble TRAIL trimer. […]

cathepsin E
order of increasing amounts of soluble TRAIL trimers secreted by treatment: PrE<PC-3<PPC-1<ALVA-101≦DU145<ALVA-41
